Measured values reported in patent US20090203708A1, “NOVEL SUBSTITUTED-1-H-QUINAZOLINE-2,4-DIONE DERIVATIVES, PREPARATION METHOD THEREOF AND PHARMACEUTICAL COMPOSITION CONTAINING THE SAME” (Korea Research Institute of Chemical Technology, priority 2006, published 2009).

Legend:
[1] = target: 5-HT7 (human recombinant receptor, CHO-K1) (Homo sapiens, UniProt P34969); assay: Radioligand binding assay, 5-HT7
D1 receptor = D1 receptor (Homo sapiens, UniProt P21728); assay: Radioligand binding assay, dopamine D1
D3 (hD3 receptor) = D3 (hD3 receptor) (Homo sapiens, UniProt P35462); assay: Radioligand binding assay, dopamine D3
[2] = target: human serotonin 5-HT6 receptor (Homo sapiens, UniProt P50406); assay: [3H]LSD binding assay for cloned 5-HT6 receptors
D2 (hD2L receptor) = target: T1, D2 (hD2L receptor) (Homo sapiens, UniProt P14416); assay: Radioligand binding assay, dopamine D2; details: [3H] spiperone 1 nM; read-out: Binding affinity IC50 D2
T1 construct: purchased BioSignal Packard Inc., Montreal, Canada
Experimental: (§1) Radioligand binding assays for dopamine receptor family (D1, D2 and D3) were performed according to the protocols provided by the manufacturer of receptor membranes (BioSignal Packard Inc., Montreal, Canada). The radioligands used were [^3H] spiperone (for hD2L and hD3 receptors, 1 nM) and [^3H] YM-09151-2 (hD4.2 receptor, 0.06 nM). Briefly, the buffer used in the D1, D2 and D3 receptor binding assay was 50 mM Tris-HCl (pH 7.4), containing 10 mM MgCl2 and 1 mM EDTA, or 50 mM Tris-HCl (pH 7.4), containing 5 mM MgCl2, 5 mM EDTA, 5 mM KCl, 1.5 mM CaCl2 and 120 mM NaCl. For [^3H] YM-09151-2 receptor binding assays, 50 mM Tris-HCl (pH 7.4) containing 5 mM MgCl2, 5 mM EDTA, 5 mM KCl and 1.5 mM CaCl2, was used as a buffer. Nonspecific binding was determined with haloperidol (10 μM) for D2 and D3 and clozapine (10 μM) for D4 receptors.
(§2) Competition binding studies were carried out with 7-8 concentrations of the test compound run in duplicate tubes, and isotherms from three assays were calculated by computerized nonlinear regression analysis (GraphPad Prism Program, San Diego, […]) to yield median inhibitory concentration (IC50) values.

[3] = target: 5-HT2a (human recombinant receptor, CHO-K1) (Homo sapiens, UniProt P28223); assay: Radioligand binding assay, 5-HT2a
[4] = target: T2, 5-HT1a (human recombinant receptor, CHO-K1) (Homo sapiens, UniProt P08908); assay: Radioligand binding assay, 5-HT1a
T2 sequence (P08908 1-422): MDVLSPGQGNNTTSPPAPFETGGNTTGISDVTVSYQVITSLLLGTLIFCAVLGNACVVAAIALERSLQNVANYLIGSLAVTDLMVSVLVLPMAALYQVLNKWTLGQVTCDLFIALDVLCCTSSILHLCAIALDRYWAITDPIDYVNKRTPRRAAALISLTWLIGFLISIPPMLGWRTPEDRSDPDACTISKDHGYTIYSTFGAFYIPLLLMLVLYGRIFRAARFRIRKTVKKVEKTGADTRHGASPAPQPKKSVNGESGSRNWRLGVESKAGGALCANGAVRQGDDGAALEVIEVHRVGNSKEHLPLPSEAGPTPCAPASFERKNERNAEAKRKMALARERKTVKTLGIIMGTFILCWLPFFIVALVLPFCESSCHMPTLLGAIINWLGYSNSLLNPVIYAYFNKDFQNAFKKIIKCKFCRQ

[5] = target: T3, 5-HT2c (human recombinant receptor, CHO-K1) (Homo sapiens, UniProt P28335); assay: Radioligand binding assay, 5-HT2c
T3 sequence (P28335 33-458): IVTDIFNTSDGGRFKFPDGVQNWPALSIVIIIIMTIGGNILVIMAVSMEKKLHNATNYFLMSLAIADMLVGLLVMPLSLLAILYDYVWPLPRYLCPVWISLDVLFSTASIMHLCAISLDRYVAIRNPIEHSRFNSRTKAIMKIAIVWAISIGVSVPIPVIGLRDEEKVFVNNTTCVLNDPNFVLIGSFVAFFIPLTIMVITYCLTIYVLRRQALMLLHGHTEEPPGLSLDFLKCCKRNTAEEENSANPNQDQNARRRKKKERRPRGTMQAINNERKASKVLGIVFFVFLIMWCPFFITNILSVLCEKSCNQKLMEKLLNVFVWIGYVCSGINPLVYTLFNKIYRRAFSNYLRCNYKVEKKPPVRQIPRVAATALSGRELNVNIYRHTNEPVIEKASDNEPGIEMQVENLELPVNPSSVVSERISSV

D4 (hD4.2 receptor) = target: T4, D4 (hD4.2 receptor) (Homo sapiens, UniProt P21917, DEL265-296); assay: Radioligand binding assay, dopamine D4; details: [3H] YM-09151-2 0.06 nM; read-out: Binding affinity IC50 D4
T4 construct: purchased BioSignal Packard Inc., Montreal, Canada
T4 sequence (P21917 with tags, fused parts or gaps DEL265-296): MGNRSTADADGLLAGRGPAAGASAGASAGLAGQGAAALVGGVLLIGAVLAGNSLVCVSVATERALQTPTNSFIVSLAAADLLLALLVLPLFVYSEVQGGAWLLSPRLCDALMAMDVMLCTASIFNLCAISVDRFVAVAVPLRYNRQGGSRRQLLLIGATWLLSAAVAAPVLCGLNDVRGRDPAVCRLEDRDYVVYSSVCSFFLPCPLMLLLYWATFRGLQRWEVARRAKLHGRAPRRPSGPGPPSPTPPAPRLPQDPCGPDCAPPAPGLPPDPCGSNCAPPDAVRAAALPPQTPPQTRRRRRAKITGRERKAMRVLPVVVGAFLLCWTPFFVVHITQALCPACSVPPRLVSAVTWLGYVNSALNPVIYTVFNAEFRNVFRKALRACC
Experimental: as §1, §2

[6] = target: T5, HeLa cells transfected with human 5-HT6 receptor (Homo sapiens, UniProt P50406); assay: Serotonin-stimulated cAMP accumulation in HeLa cells (EIA); format: cell-based; details: for effect on serotonin-stimulated cAMP accumulation (in words): HeLa cells, FIG. 1
T5 construct: expressed in transfected cells; host or cells: HeLa
T5 sequence (P50406 whole entry): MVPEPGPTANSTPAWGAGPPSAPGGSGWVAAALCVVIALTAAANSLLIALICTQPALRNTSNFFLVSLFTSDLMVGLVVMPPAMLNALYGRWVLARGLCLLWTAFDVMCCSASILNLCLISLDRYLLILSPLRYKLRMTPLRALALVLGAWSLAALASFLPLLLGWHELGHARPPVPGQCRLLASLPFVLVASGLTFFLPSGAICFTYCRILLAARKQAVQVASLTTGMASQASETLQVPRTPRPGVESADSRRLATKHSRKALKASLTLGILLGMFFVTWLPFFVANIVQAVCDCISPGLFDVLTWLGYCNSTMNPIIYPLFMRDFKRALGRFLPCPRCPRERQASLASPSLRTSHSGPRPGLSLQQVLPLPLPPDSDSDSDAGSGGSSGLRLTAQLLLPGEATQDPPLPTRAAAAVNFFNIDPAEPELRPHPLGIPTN

D3 (hD3 receptor), sequence (P35462 whole entry): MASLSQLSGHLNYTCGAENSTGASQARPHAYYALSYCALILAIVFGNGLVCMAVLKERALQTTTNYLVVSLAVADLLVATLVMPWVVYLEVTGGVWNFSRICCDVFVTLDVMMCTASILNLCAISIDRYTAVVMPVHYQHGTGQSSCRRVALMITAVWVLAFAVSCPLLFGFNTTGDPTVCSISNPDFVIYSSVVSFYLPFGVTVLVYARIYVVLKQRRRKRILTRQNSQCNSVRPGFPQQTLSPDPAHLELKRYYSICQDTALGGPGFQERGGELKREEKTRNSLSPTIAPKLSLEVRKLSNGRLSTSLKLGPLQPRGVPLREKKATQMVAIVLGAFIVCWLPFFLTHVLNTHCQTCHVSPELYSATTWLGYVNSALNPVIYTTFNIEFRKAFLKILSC
5-HT7 (human recombinant receptor, CHO-K1), sequence (P34969 whole entry): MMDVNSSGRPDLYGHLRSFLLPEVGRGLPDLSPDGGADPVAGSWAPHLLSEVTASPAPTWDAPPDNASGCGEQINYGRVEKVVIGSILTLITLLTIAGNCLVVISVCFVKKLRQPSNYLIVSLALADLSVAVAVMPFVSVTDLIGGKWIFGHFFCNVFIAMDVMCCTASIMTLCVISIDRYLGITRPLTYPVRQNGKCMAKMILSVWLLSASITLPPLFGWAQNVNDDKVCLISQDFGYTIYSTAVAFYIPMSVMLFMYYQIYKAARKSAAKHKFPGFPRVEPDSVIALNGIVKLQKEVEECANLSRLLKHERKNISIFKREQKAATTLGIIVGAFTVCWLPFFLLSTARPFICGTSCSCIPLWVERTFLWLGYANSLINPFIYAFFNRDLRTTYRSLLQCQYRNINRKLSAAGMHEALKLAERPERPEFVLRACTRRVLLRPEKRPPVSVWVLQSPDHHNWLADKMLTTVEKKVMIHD
5-HT2a (human recombinant receptor, CHO-K1), sequence (P28223 whole entry): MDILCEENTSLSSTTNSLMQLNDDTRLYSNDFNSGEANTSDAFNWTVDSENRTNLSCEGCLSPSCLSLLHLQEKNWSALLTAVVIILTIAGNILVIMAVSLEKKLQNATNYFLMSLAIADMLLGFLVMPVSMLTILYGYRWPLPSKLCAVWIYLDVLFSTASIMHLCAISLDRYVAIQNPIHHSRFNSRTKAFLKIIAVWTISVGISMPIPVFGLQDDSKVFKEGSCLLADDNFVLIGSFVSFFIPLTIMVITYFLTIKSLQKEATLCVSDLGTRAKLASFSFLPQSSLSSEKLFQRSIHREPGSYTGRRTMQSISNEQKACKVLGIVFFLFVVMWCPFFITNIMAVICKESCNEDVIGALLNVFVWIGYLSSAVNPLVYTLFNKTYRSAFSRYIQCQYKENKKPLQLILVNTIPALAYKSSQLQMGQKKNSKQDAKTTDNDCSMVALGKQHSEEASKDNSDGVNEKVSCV
human serotonin 5-HT6 receptor, sequence (P50406 whole entry): as the sequence (P50406 whole entry) above
T1 sequence (P14416 whole entry): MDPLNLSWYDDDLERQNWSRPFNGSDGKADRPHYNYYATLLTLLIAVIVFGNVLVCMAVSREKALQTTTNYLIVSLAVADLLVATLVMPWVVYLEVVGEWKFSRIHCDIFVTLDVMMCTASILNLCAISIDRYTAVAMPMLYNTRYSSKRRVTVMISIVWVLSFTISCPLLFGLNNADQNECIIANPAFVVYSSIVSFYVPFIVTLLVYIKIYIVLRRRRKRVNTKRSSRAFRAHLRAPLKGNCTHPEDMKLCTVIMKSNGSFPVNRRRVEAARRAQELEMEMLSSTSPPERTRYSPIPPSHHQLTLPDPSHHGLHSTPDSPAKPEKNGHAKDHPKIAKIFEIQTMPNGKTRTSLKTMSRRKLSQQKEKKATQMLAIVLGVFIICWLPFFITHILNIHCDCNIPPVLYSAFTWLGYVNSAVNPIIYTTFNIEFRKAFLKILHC
D1 receptor, sequence (P21728 whole entry): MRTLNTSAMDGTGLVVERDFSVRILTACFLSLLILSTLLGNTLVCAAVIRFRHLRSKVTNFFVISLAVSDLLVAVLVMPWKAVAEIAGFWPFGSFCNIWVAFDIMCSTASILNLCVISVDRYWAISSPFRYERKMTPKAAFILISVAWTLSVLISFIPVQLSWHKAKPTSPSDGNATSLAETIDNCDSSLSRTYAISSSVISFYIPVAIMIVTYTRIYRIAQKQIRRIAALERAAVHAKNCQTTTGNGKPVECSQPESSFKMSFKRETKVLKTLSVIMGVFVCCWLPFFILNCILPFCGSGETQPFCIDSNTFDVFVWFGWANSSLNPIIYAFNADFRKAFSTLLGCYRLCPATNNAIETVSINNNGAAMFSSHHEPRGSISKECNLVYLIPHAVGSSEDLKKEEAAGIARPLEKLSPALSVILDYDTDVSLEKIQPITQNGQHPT

Structure (SMILES): O=c1c2c(N3CCNCC3)cc(Cl)cc2n(Cc2ccccc2)c(=O)n1CCc1ccccc1 [Example 70, 1-benzyl-7-chloro-3-phenethyl-5-piperazin-1-yl-1H-quinazoline-2,4-dione]
- IC50 [1]: 7710 nM
- IC50 (D1 receptor): 5710 nM
- IC50 (D3 (hD3 receptor)): 2840 nM
- IC50 [2]: 0.6 nM
- IC50 (D2 (hD2L receptor)): 7440 nM
- IC50 [3]: 401 nM
- IC50 [4]: 2910 nM
- IC50 [5]: 752 nM
- IC50 (D4 (hD4.2 receptor)): > 10000 nM

Structure (SMILES): C[C@@H](c1ccccc1)n1c(=O)c2c(N3CCN(C)CC3)cc(Cl)cc2n(Cc2ccccc2)c1=O [Example 41, 1-benzyl-7-chloro-5-(4-methyl-piperazin-1yl)-3-[(S)-1-phenyl-ethyl]-1H-quinazoline-2,4-dione]
- IC50 [1]: 2740 nM
- IC50 (D1 receptor): > 10000 nM
- IC50 (D3 (hD3 receptor)): 362 nM
- IC50 [2]: 5 nM
- IC50 (D2 (hD2L receptor)): 744 nM
- IC50 [3]: 160 nM
- IC50 [4]: > 10000 nM
- IC50 [5]: 865 nM
- IC50 (D4 (hD4.2 receptor)): > 10000 nM

Structure (SMILES): CN1CCN(c2cc(Cl)cc3c2c(=O)n(C)c(=O)n3Cc2ccccc2)CC1 [Example 1, 1-benzyl-7-chloro-3-methyl-5-(4-methyl-piperazin-1-yl)-1H-quinazoline-2,4-dione]
- IC50 [2]: 3 nM
- melting point: 173 to 175 °C
- antagonist activity compared with methiothepin [6]: weaker antagonist activity than methiothepin
- effect on serotonin-stimulated cAMP accumulation (in words) [6]: identified as 5-HT6 receptor antagonists

Structure (SMILES): CCCCCCCCn1c(=O)c2c(N3CCN(C)CC3)cc(Cl)cc2n(Cc2ccccc2)c1=O [Example 7, 1-benzyl-7-chloro-5-(4-methyl-piperazin-1-yl)-3-octyl-1H-quinazoline-2,4-dione]
- IC50 [1]: 2560 nM
- IC50 (D3 (hD3 receptor)): 606 nM
- IC50 [2]: 1.5 nM
- IC50 (D2 (hD2L receptor)): 2760 nM
- melting point: 78 to 80 °C
- IC50 [3]: 1140 nM
- IC50 [4]: 2160 nM
- IC50 [5]: 1710 nM
- IC50 (D4 (hD4.2 receptor)): > 10000 nM

Structure (SMILES): CN1CCN(c2cc(Cl)cc3c2c(=O)n(Cc2ccccc2[N+](=O)[O-])c(=O)n3Cc2ccccc2)CC1 [Example 31, 1-benzyl-7-chloro-5-(4-methyl-piperazin-1-yl)-3-(2-nitro-benzyl)-1H-quinazoline-2,4-dione]
- IC50 [1]: > 10000 nM
- IC50 (D3 (hD3 receptor)): 1240 nM
- IC50 [2]: 1.4 nM
- IC50 (D2 (hD2L receptor)): > 10000 nM
- melting point: 164 to 169 °C
- IC50 [3]: 49 nM
- IC50 [4]: 2240 nM
- IC50 [5]: 952 nM
- IC50 (D4 (hD4.2 receptor)): > 10000 nM

Structure (SMILES): O=c1c2c(N3CCNCC3)cc(Cl)cc2n(Cc2ccccc2)c(=O)n1Cc1ccccc1F [Example 58, 1-benzyl-7-chloro-3-(2-fluoro-benzyl)-5-piperazin-1-yl-quinazoline-2,4-dione]
- IC50 [1]: > 10000 nM
- IC50 (D3 (hD3 receptor)): 3130 nM
- IC50 [2]: 0.6 nM
- IC50 (D2 (hD2L receptor)): > 10000 nM
- melting point: 98 to 109 °C
- IC50 [3]: 220 nM
- IC50 [4]: 2850 nM
- IC50 [5]: 540 nM
- IC50 (D4 (hD4.2 receptor)): > 10000 nM

Structure (SMILES): O=c1c2c(N3CCNCC3)cc(Cl)cc2n(Cc2ccccc2)c(=O)n1Cc1ccccc1Cl [Example 59, 1-benzyl-7-chloro-3-(2-chloro-benzyl)-5-piperazin-1-yl-1H-quinazoline-2,4-dione]
- IC50 [1]: 7320 nM
- IC50 (D3 (hD3 receptor)): 381 nM
- IC50 [2]: 1.7 nM
- IC50 (D2 (hD2L receptor)): > 10000 nM
- melting point: 120 to 125 °C
- IC50 [3]: 132 nM
- IC50 [4]: 2160 nM
- IC50 [5]: 198 nM
- IC50 (D4 (hD4.2 receptor)): > 10000 nM

Structure (SMILES): CN1CCN(c2cc(Cl)cc3c2c(=O)n(Cc2ccccc2Cl)c(=O)n3Cc2ccccc2)CC1 [Example 17, 1-benzyl-7-chloro-3-(2-chloro-benzyl)-5-(4-methyl-piperazin-1-yl)-1H-quinazoline-2,4-dione]
- IC50 [1]: 2180 nM
- IC50 (D3 (hD3 receptor)): 138 nM
- IC50 [2]: 0.5 nM
- IC50 (D2 (hD2L receptor)): > 10000 nM
- melting point: 87 to 92 °C
- IC50 [3]: 169 nM
- IC50 [4]: 3280 nM
- IC50 [5]: 512 nM
- IC50 (D4 (hD4.2 receptor)): > 10000 nM

Structure (SMILES): CN1CCN(c2cc(Cl)cc3c2c(=O)n(Cc2cccc(F)c2)c(=O)n3Cc2ccccc2)CC1 [Example 12, 1-benzyl-7-chloro-3-(3-fluoro-benzyl)-5-(4-methyl-piperazin-1-yl)-1H-quinazoline-2,4-dione]
- IC50 [1]: 1670 nM
- IC50 (D3 (hD3 receptor)): 490 nM
- IC50 [2]: 1.9 nM
- IC50 (D2 (hD2L receptor)): > 10000 nM
- melting point: 148 to 150 °C
- IC50 [3]: 622 nM
- IC50 [4]: 718 nM
- IC50 [5]: 1060 nM
- IC50 (D4 (hD4.2 receptor)): > 10000 nM

Structure (SMILES): CN1CCN(c2cc(Cl)cc3c2c(=O)n(Cc2ccc(F)cc2)c(=O)n3Cc2ccccc2)CC1 [Example 13, 1-benzyl-7-chloro-3-(4-fluoro-benzyl)-5-(4-methyl-piperazin-1-yl)-1H-quinazoline-2,4-dione]
- IC50 [1]: 8640 nM
- IC50 (D3 (hD3 receptor)): 2380 nM
- IC50 [2]: 1.5 nM
- IC50 (D2 (hD2L receptor)): > 10000 nM
- melting point: 110 to 114 °C
- IC50 [3]: 1390 nM
- antagonist activity compared with methiothepin [6]: weaker antagonist activity than methiothepin
- effect on serotonin-stimulated cAMP accumulation (in words) [6]: identified as 5-HT6 receptor antagonists
- IC50 [4]: 2770 nM
- IC50 [5]: 1800 nM
- IC50 (D4 (hD4.2 receptor)): > 10000 nM

Structure (SMILES): CN1CCN(c2cc(Cl)cc3c2c(=O)n(Cc2cccc(I)c2)c(=O)n3Cc2ccccc2)CC1 [Example 20, 1-benzyl-7-chloro-3-(3-iodo-benzyl)-5-(4-methyl-piperazin-1-yl)-1H-quinazoline-2,4-dione]
- IC50 [1]: 1920 nM
- IC50 (D3 (hD3 receptor)): 615 nM
- IC50 [2]: 1.6 nM
- IC50 (D2 (hD2L receptor)): > 10000 nM
- melting point: 182 to 184 °C
- IC50 [3]: 912 nM
- IC50 [4]: 3530 nM
- IC50 [5]: 1050 nM
- IC50 (D4 (hD4.2 receptor)): > 10000 nM

Structure (SMILES): CN1CCN(c2cc(Cl)cc3c2c(=O)n(Cc2ccccc2F)c(=O)n3Cc2ccccc2)CC1 [Example 11, 1-benzyl-7-chloro-3-(2-fluoro-benzyl)-5-(4-methyl-piperazin-1-yl)-1H-quinazoline-2,4-dione]
- IC50 [1]: 4840 nM
- IC50 (D3 (hD3 receptor)): 2660 nM
- IC50 [2]: 1.2 nM
- IC50 (D2 (hD2L receptor)): > 10000 nM
- melting point: 147 to 149 °C
- IC50 [3]: 463 nM
- IC50 [4]: 1510 nM
- IC50 [5]: 176 nM
- IC50 (D4 (hD4.2 receptor)): > 10000 nM
